# Activity calls are given as the source filed them. The calls are words filed in the database; no cut-off is given here.
# Columns and labels:
# Format in all cases: functional, cell-based
# [1] = test system: HeLa; assay: Cytotoxicity against human HeLa cells assessed as inhibition of cell growth at 5 to 20 uM by MTT assay; conditions: TDE = time-dependent effect
# [2] = test system: HeLa; assay: Induction of autophagy in human HeLa cells assessed as conversion of LC3 1 to LC3 2 at 5 to 20 uM after 24 hrs by Western blot analysis
# [3] = test system: HeLa; assay: Induction of autophagy in human HeLa cells in presence of NAC by MDC staining-based flow cytometry
# [4] = test system: HeLa; assay: Induction of autophagy in human HeLa cells after 24 hrs in presence of 3MA by MDC staining-based flow cytometry
# [5] = test system: HeLa; assay: Induction of apoptosis in human HeLa cells assessed as increase in cytochrome c release from mitochondria to cytosol at 5 to 20 uM after 24 hrs by Western blot analysis
# [6] = test system: HeLa; assay: Induction of apoptosis in human HeLa cells assessed as increase in subG0/G1 ratio preincubated with 3MA for 1 hr followed by compound treatment at 10 uM for 24 hrs by PI staining-based flow cytometry
# [7] = test system: HeLa; assay: Induction of autophagy in human HeLa cells preincubated at 10 uM in presence of ZVAD for 24 hrs by MDC staining-based flow cytometry
# [8] = test system: HeLa; assay: Upregulation of FasL in human HeLa cells at 5 to 20 uM after 24 hrs by Western blot analysis
# [9] = test system: HeLa; assay: Induction of apoptosis in human HeLa cells assessed as increase in subG0/G1 ratio at 10 uM after 24 hrs in presence of ZVAD by PI staining-based flow cytometry
# [10] = test system: HeLa; assay: Induction of autophagy in human HeLa cells assessed as conversion of LC3 1 to LC3 2 at 5 to 20 uM after 24 hrs in presence of 3MA by Western blot analysis
# [11] = test system: HeLa; assay: Induction of apoptosis in human HeLa cells assessed as increase in Bax/Bcl-2 ratio at 5 to 20 uM after 24 hrs by Western blot analysis
# [12] = test system: HeLa; assay: Upregulation of caspase-3 in human HeLa cells at 5 to 20 uM after 24 hrs by Western blot analysis
# [13] = test system: HeLa; assay: Upregulation of beclin 1 in human HeLa cells at 5 to 20 uM after 24 hrs by Western blot analysis
# [14] = test system: HeLa; assay: Induction of apoptosis in human HeLa cells assessed as reduction in mitochondrial membrane potential at 5 to 20 uM after 24 hrs by Rhodamine123 staining-based flow cytometry
# [15] = test system: HeLa; assay: Induction of autophagy in human HeLa cells after 24 hrs by MDC staining-based flow cytometry
# [16] = test system: HeLa; assay: Induction ROS generation in human HeLa cells in presence of ZVAD by flow cytometry
# [17] = test system: HeLa; assay: Cytotoxicity against human HeLa cells assessed as inhibition of cell growth after 24 hrs in presence of 3MA by MTT assay
# [18] = test system: HeLa; assay: Induction of ROS generation in human HeLa cells at 10 uM in presence of NAC by H2DCF-DA staining-based flow cytometry
# [19] = test system: HeLa; assay: Induction of apoptosis in human HeLa cells assessed as chromatin condensation at 10 uM after 24 hrs by AO staining-based microscopic analysis
# [20] = test system: HeLa; assay: Induction ROS generation in human HeLa cells in presence of 3MA by flow cytometry
# [21] = test system: HeLa; assay: Induction of apoptosis in human HeLa cells assessed as nuclear fragmentation at 10 uM after 24 hrs by AO staining-based microscopic analysis
# [22] = test system: HeLa; assay: Upregulation of Fas in human HeLa cells at 5 to 20 uM after 24 hrs by Western blot analysis
# [23] = test system: HeLa; assay: Induction of apoptosis in human HeLa cells assessed as increase in subG0/G1 ratio in presence of NAC by PI staining-based flow cytometry
# [24] = test system: HeLa; assay: Induction of ROS generation in human HeLa cells at 10 to 20 uM after 24 hrs by H2DCF-DA staining-based flow cytometry
# [25] = test system: HeLa; assay: Upregulation of beclin 1 in human HeLa cells at 5 to 20 uM after 24 hrs in presence of 3MA by Western blot analysis
# [26] = test system: HeLa; assay: Upregulation of caspase-8 in human HeLa cells at 5 to 20 uM after 24 hrs by Western blot analysis
# [27] = test system: HeLa; assay: Induction of ROS generation in human HeLa cells at up to 5 uM after 24 hrs by H2DCF-DA staining-based flow cytometry
# [28] = test system: HeLa; assay: Cytotoxicity against human HeLa cells assessed as inhibition of cell growth after 12 to 48 hrs by MTT assay
# [29] = test system: HeLa; assay: Induction of apoptosis in human HeLa cells assessed as formation of apoptotic bodies at 10 uM after 24 hrs by phase contrast microscopic analysis
# [30] = test system: HeLa; assay: Induction of apoptosis in human HeLa cells assessed as increase in subG0/G1 ratio after 24 hrs by PI staining-based flow cytometry
# [31] = test system: HeLa; assay: Upregulation of FADD in human HeLa cells at 5 to 20 uM after 24 hrs by Western blot analysis
# [32] = test system: HeLa; assay: Induction of autophagy in human HeLa cells at 10 uM after 24 hrs by MDC staining-based fluorescence microscopic analysis
smiles,measurement,setting,value
COc1ccc(-c2nc3cc(Oc4ccc5[nH]c(-c6ccc(OC)cc6)nc5c4)ccc3[nH]2)cc1,inhibition,[1],Tde
same,Activity,[2],Active
same,Activity,[3],inactive
same,Activity,[4],inactive
same,Activity,[5],Active
same,Activity,[6],inactive
same,Activity,[7],Active
same,Activity,[8],Active
same,Activity,[9],inactive
same,Activity,[10],inactive
same,Activity,[11],Active
same,Activity,[12],Active
same,Activity,[13],Active
same,Activity,[14],Active
same,Activity,[15],Dose-dependent effect
same,Activity,[16],inactive
same,Activity,[17],inactive
same,Activity,[18],inactive
same,Activity,[19],Active
same,Activity,[20],inactive
same,Activity,[21],Active
same,Activity,[22],Active
same,Activity,[23],inactive
same,Activity,[24],inactive
same,Activity,[25],inactive
same,Activity,[26],Active
same,Activity,[27],Active
same,Activity,[28],Dose-dependent effect
same,Activity,[29],Active
same,Activity,[30],Dose-dependent effect
same,Activity,[31],Active
same,Activity,[32],Active

# Reference: ChEMBL document CHEMBL4477256, “Newly synthesized bis-benzimidazole compound 8 induces apoptosis, autophagy and reactive oxygen species generation in HeLa cells” (Bioorg Med Chem Lett, 2016)
